Test systems include EKVX NSCLC; SR leukemia; MDA-MB-231 breast; UACC-257 melanoma; SW-620 colon; HOP-62 NSCLC; BT-549 breast; MALME-3M melanoma; OVCAR-3 ovarian; HS 578T breast.
Common to all, as to experiment: DTP human tumour cell line panel, 48 h

A word on the TGI: it is the concentration giving total growth inhibition.

SMILES strings stand for the structures.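 Briefly, cells in 96-well plates were exposed to five compound concentrations for 48 h, and endpoints were estimated by linear interpolation. Definition used: TGI = concentration required for complete inhibition of growth.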

Turning to `COc1ccc(N2C(=O)C3ON(C(C(N)=O)c4ccccc4)C(c4ccc(-c5ccccc5)cc4)C3C2=O)cc1` (stereo not given), the TGI with EKVX NSCLC, with SR leukemia, with MDA-MB-231 breast, in the assay on UACC-257 melanoma, in the assay with SW-620 colon and in the assay on HOP-62 NSCLC was greater than 50 µM in each case. Besides, the TGI in the assay with BT-549 breast, in the assay with MALME-3M melanoma, in the assay with OVCAR-3 ovarian and with HS 578T breast was greater than 50 µM each time.
Take `Cc1ccc(S(=O)(=O)NN=C2CCCCCCCCCCC2)cc1`: the TGI in the assay with EKVX NSCLC, in the assay with SR leukemia, in the assay with MDA-MB-231 breast, in the assay on UACC-257 melanoma, with SW-620 colon and with HOP-62 NSCLC was greater than 100 µM in each case. The TGI in the assay on BT-549 breast, in the assay on MALME-3M melanoma, with OVCAR-3 ovarian and in the assay with HS 578T breast was greater than 100 µM in each case.
On to `CC(C)(C)c1ccc(-c2nc3ccc([N+](=O)[O-])cc3c(=O)o2)cc1`, for which the TGI with EKVX NSCLC is greater than 100 µM; in the assay with SR leukemia, 68.7 µM; in the assay on MDA-MB-231 breast it was 66 µM; in the assay on UACC-257 melanoma, 81.2 µM; in the assay with SW-620 colon it was greater than 100 µM; with HOP-62 NSCLC it was 60.9 µM. In addition, the TGI in the assay with BT-549 breast worked out at 76.9 µM; with MALME-3M melanoma, 75 µM; in the assay with OVCAR-3 ovarian, 81.1 µM; in the assay with HS 578T breast, 80.8 µM.
On to `O=C1C(/C=C/c2ccc(Cl)cc2)=NNC2N1N=C1NC(=O)C3(NN12)c1ccccc1-c1ccccc13` (stereo not given), for which the TGI is greater than 100 µM in the assay on EKVX NSCLC; 60.3 µM in the assay on SR leukemia; greater than 100 µM in the assay with MDA-MB-231 breast; greater than 100 µM in the assay with UACC-257 melanoma; greater than 100 µM with SW-620 colon; greater than 100 µM with HOP-62 NSCLC. The TGI with BT-549 breast, in the assay on MALME-3M melanoma, with OVCAR-3 ovarian and in the assay on HS 578T breast was greater than 100 µM each time.
Turning to `COc1ccc(C2SCC(=O)N2c2ccc(-n3c(-c4ccccc4)nc4ccccc4c3=O)cc2)cc1OC` (stereo not given), the TGI in the assay on EKVX NSCLC, in the assay on SR leukemia, in the assay with MDA-MB-231 breast, with UACC-257 melanoma, in the assay on SW-620 colon and with HOP-62 NSCLC was greater than 100 µM in each case. Besides, the TGI in the assay on BT-549 breast, in the assay with MALME-3M melanoma, in the assay with OVCAR-3 ovarian and with HS 578T breast was greater than 100 µM in each case.
For the molecule `CN(NC(=O)CCCl)C1=NCCN1`, the total growth inhibition concentration (TGI) in the assay with EKVX NSCLC, with SR leukemia, in the assay on MDA-MB-231 breast, in the assay with UACC-257 melanoma, in the assay on SW-620 colon and in the assay on HOP-62 NSCLC was greater than 100 µM in each case. Besides, the TGI in the assay on BT-549 breast, in the assay on MALME-3M melanoma, in the assay with OVCAR-3 ovarian and in the assay with HS 578T breast was greater than 100 µM in each case.
Consider `COc1cc(CCCOC(=O)/C=C/c2ccc(O)c(O)c2)cc(O)c1O`, for which the TGI is greater than 100 µM in the assay with EKVX NSCLC; greater than 100 µM in the assay with SR leukemia; 91.7 µM with MDA-MB-231 breast; greater than 100 µM with UACC-257 melanoma; 35.9 µM in the assay with SW-620 colon; greater than 100 µM in the assay with HOP-62 NSCLC. Further, the TGI in the assay with BT-549 breast, in the assay with MALME-3M melanoma, in the assay on OVCAR-3 ovarian and in the assay on HS 578T breast was greater than 100 µM each time.
As to `CN(C)c1ccc(/C=C(\C#N)C(N)=C(C#N)C#N)cc1`, the TGI in the assay with EKVX NSCLC, in the assay with SR leukemia, in the assay with MDA-MB-231 breast, in the assay with UACC-257 melanoma, in the assay with SW-620 colon and in the assay with HOP-62 NSCLC was greater than 100 µM in each case. In addition, the TGI in the assay with BT-549 breast, in the assay with MALME-3M melanoma, with OVCAR-3 ovarian and in the assay on HS 578T breast was greater than 100 µM throughout.
For the molecule `COCC1OC(OC2C3=C(C(C)C)CCC3(C)/C=C3\C(CCC3(O)COC)C(C)C2O)C(O)C2OC3OC12OC3(C)C1CO1` (stereo not given), the TGI in the assay on EKVX NSCLC is greater than 100 µM; in the assay with SR leukemia, 75.7 µM; in the assay with MDA-MB-231 breast, greater than 100 µM; in the assay on UACC-257 melanoma, greater than 100 µM; in the assay with SW-620 colon, greater than 100 µM; in the assay on HOP-62 NSCLC it was greater than 100 µM. Also, the TGI is 87.8 µM in the assay on BT-549 breast, greater than 100 µM in the assay with MALME-3M melanoma, greater than 100 µM in the assay with OVCAR-3 ovarian and greater than 100 µM with HS 578T breast.
For `C[C@]12CC[C@@H]3c4cc(OCC(F)(F)F)c(O)cc4C(=O)C[C@H]3[C@@H]1CC[C@@H]2O`, the TGI in the assay with EKVX NSCLC was greater than 100 µM; in the assay on SR leukemia, greater than 100 µM; with MDA-MB-231 breast, greater than 66.4 µM; in the assay on UACC-257 melanoma, greater than 100 µM; in the assay with SW-620 colon, greater than 100 µM; in the assay with HOP-62 NSCLC it was greater than 100 µM. Moreover, the TGI in the assay with BT-549 breast is greater than 100 µM; in the assay on MALME-3M melanoma, 88.1 µM; with OVCAR-3 ovarian it was 7.59 µM; in the assay with HS 578T breast, 43.9 µM.
Take `CCCc1cc(=O)oc2c3c(c4c(c12)OC(C)(C)C=C4)O[C@@H](C)[C@H](C)C3=O`: the TGI in the assay with EKVX NSCLC is 24.6 µM; in the assay with SR leukemia, 41.6 µM; in the assay on MDA-MB-231 breast, 33.2 µM; in the assay on UACC-257 melanoma, 37.3 µM; in the assay on SW-620 colon, 32.2 µM; in the assay on HOP-62 NSCLC, 35.5 µM. In addition, the TGI is 29.6 µM with BT-549 breast, 35.6 µM with MALME-3M melanoma, 49.1 µM with OVCAR-3 ovarian and 38.7 µM with HS 578T breast.
Take `COc1ccc(/C=C2\C[C@H]3[C@@H]4CCC5=C[C@@H](N6CCCC6)CC[C@]5(C)[C@H]4CC[C@]3(C)[C@H]2O)cc1`: the TGI in the assay on EKVX NSCLC was determined as 17 µM; in the assay on SR leukemia, 6.32 µM; in the assay with MDA-MB-231 breast, 4.6 µM; in the assay on UACC-257 melanoma, 2.98 µM; in the assay on HOP-62 NSCLC it was 3.74 µM; with BT-549 breast, 14.1 µM. In addition, the TGI with MALME-3M melanoma was 5.87 µM; in the assay on OVCAR-3 ovarian, 8.26 µM; in the assay with HS 578T breast, 8.66 µM.
Regarding `O=P(Oc1ccccc1)(Oc1ccccc1)Oc1c[nH]c2ccccc12`, the TGI was 0.907 µM in the assay on EKVX NSCLC; greater than 100 µM in the assay on SR leukemia; 31.3 µM in the assay on MDA-MB-231 breast; 21.8 µM in the assay with UACC-257 melanoma; 36 µM in the assay with SW-620 colon; 36.3 µM with HOP-62 NSCLC. In addition, the TGI in the assay with BT-549 breast stood at 34.4 µM; in the assay on MALME-3M melanoma it was 37.5 µM; with OVCAR-3 ovarian, 39.1 µM; in the assay on HS 578T breast, 40.8 µM.
For `C[C@H](Nc1c(O)c2c(c(O)c1Cl)C(=O)C=CC2=O)C(=O)Nc1ccc([N+](=O)[O-])cc1`, the TGI in the assay with EKVX NSCLC is greater than 10 µM; in the assay with SR leukemia it was greater than 10 µM; in the assay on MDA-MB-231 breast it was 4.22 µM; in the assay on UACC-257 melanoma, 3.41 µM; in the assay on SW-620 colon it was 6.49 µM; in the assay with HOP-62 NSCLC, 6.74 µM. For the same molecule, the TGI is greater than 10 µM in the assay on BT-549 breast, 2.41 µM in the assay with MALME-3M melanoma, 2.75 µM in the assay on OVCAR-3 ovarian and greater than 10 µM with HS 578T breast.
`COC(=O)C1(Cc2ccc3c(c2)CCC3)Cc2ccc3c(c2C1O)CCC3` (stereo not given): the TGI was 32 µM in the assay on EKVX NSCLC; greater than 100 µM in the assay with SR leukemia; 29.4 µM in the assay with MDA-MB-231 breast; 26.1 µM in the assay on UACC-257 melanoma; 30.2 µM with SW-620 colon; 28 µM in the assay on HOP-62 NSCLC. In addition, the TGI in the assay on BT-549 breast is 29.5 µM; in the assay with MALME-3M melanoma, 27.3 µM; with OVCAR-3 ovarian it was 27.7 µM; in the assay on HS 578T breast it was 42.1 µM.
Regarding `O=C1NC(Cc2c[nH]c3ccccc23)C(=O)N2C(C3CCCCC3)c3[nH]c4ccccc4c3C[C@@H]12` (stereo not given in full), the TGI in the assay on EKVX NSCLC turned out to be 57.2 µM; with SR leukemia, 34 µM; with MDA-MB-231 breast, 30.6 µM; in the assay with UACC-257 melanoma, 29 µM; in the assay on SW-620 colon it was 73.7 µM; in the assay with HOP-62 NSCLC, 44.9 µM. The TGI in the assay on BT-549 breast came to 40.8 µM; with MALME-3M melanoma, 28.4 µM; in the assay on OVCAR-3 ovarian, 6.58 µM; in the assay on HS 578T breast, 12.7 µM.
Consider `CC1CC[C@@]2(OC1)OC1C[C@H]3[C@@H]4C/C(=N\N(C)C)[C@@]5(O)CC(O)CC[C@]5(C)[C@H]4CC[C@]3(C)C1[C@@H]2C` (stereo not given in full), for which the TGI with SR leukemia was 54.6 µM; in the assay with MDA-MB-231 breast, greater than 100 µM; with UACC-257 melanoma, greater than 100 µM; in the assay on SW-620 colon, greater than 100 µM; with HOP-62 NSCLC, greater than 100 µM; in the assay on BT-549 breast, greater than 100 µM. The TGI is 83.7 µM in the assay on MALME-3M melanoma, greater than 100 µM with OVCAR-3 ovarian and greater than 100 µM with HS 578T breast.
As for `CC1=C2c3c(C)ccc4ccc(C)c(c34)C2(O)C(C)C1=O` (stereo not given), the TGI in the assay with EKVX NSCLC, with SR leukemia, with MDA-MB-231 breast, with UACC-257 melanoma, in the assay with SW-620 colon and in the assay with HOP-62 NSCLC was greater than 100 µM throughout. Also, the TGI with BT-549 breast was 57.4 µM; in the assay on OVCAR-3 ovarian, greater than 100 µM; in the assay on HS 578T breast it was greater than 100 µM.
Turning to `O=C1CN2Cc3cc(N4CCOCC4)ccc3N=C2N1`, the TGI in the assay with SR leukemia, in the assay with MDA-MB-231 breast, in the assay on UACC-257 melanoma, in the assay with SW-620 colon, in the assay with HOP-62 NSCLC and in the assay with BT-549 breast was greater than 100 µM each time. Moreover, the TGI in the assay on MALME-3M melanoma, in the assay on OVCAR-3 ovarian and in the assay on HS 578T breast was greater than 100 µM each time.
As for `CCCCn1c(C)c(C(=O)OCC)s/c1=N/Nc1nc2ccccc2nc1-c1ccccc1`, the TGI is greater than 100 µM with EKVX NSCLC; greater than 100 µM with SR leukemia; greater than 100 µM in the assay with MDA-MB-231 breast; greater than 100 µM with UACC-257 melanoma; greater than 100 µM in the assay with SW-620 colon; 83.5 µM in the assay on HOP-62 NSCLC. Moreover, the TGI in the assay on BT-549 breast is greater than 100 µM; with OVCAR-3 ovarian, greater than 100 µM; in the assay on HS 578T breast, 60.3 µM.

(Values after PubChem BioAssay (NCI).)
